Assay [1] has as its target T1, recombinant human PERK protein (Homo sapiens, UniProt Q9NZJ5).
T1 sequence (Q9NZJ5 30-1116): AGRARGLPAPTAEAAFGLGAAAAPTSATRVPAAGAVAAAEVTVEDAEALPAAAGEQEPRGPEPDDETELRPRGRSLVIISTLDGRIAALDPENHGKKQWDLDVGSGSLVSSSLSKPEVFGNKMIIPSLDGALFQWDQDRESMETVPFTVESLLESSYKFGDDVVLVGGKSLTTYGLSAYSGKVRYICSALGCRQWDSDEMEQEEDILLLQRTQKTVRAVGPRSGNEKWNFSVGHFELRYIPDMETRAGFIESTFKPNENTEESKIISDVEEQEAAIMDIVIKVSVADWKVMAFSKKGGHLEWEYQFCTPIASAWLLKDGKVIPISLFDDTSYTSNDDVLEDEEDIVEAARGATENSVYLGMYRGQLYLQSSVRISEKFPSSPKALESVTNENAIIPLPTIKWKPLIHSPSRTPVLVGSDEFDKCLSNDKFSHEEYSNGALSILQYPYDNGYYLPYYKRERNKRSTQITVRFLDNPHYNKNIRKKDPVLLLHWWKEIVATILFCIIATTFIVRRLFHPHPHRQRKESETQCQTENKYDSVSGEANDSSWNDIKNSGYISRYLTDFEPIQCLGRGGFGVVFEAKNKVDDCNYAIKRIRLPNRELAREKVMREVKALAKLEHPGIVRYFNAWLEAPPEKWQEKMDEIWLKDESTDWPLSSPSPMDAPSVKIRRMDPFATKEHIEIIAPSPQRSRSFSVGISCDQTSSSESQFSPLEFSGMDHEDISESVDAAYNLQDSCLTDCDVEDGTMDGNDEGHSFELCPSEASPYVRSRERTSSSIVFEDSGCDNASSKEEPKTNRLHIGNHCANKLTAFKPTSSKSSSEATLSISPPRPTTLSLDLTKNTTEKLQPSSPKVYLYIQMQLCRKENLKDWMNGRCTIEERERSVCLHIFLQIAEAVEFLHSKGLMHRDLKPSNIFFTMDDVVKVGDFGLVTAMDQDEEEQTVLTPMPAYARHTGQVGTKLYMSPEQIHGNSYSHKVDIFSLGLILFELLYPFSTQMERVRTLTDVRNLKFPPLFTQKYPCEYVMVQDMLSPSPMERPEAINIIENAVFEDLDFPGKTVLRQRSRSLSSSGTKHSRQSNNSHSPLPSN
Briefly: PKR-like endoplasmic reticulum kinase (PERK) inhibitory capacity, 33P-ATP filter assay. It is filed as biochemical. The conditions noted are these: 15 uM [gamma-33P-ATP], 40 minutes, room temperature.

Assay [2] has as its target recombinant human HRI protein (Homo sapiens, UniProt Q9BQI3). Briefly: eIF2-alpha kinase heme-regulated inhibitor (HRI) inhibitory capacity, 33P-ATP filter assay. It is filed as biochemical. The conditions noted are these: 45 uM [gamma-33P-ATP], 40 minutes, room temperature. Here is the method:
<Experimental Example 3> Evaluation of eIF2-Alpha Kinase Heme-Regulated Inhibitor (HRI) Inhibitory Capacity
A recombinant human HRI protein was mixed with the compound in a reaction solution (50 mM Tris/HCl pH 7.5, 0.04 mM EDTA, 300 uM RSRSRSRSRSRSRSR, 10 mM Magnesium acetate, 45 uM [gamma-33P-ATP]) and reacted at room temperature for 40 minutes. Then, the reaction was terminated by adding phosphoric acid (0.5%) to the reaction mixture, and […] of the reaction solution was dropped onto a P30 filter. The filter was washed four times in a 0.425% phosphoric acid solution for 4 minutes, then […] washed once more in methanol, dried, and the HRI activity was measured by scintillation counting. […] The compound was diluted by 1/3 from the highest concentration of 1 uM and treated with a total of 9 concentrations to evaluate the degree of inhibition.

As usually defined, the IC50 is the point on the concentration scale where inhibition reaches its midpoint.

Sequence of recombinant human HRI protein (Q9BQI3 whole entry): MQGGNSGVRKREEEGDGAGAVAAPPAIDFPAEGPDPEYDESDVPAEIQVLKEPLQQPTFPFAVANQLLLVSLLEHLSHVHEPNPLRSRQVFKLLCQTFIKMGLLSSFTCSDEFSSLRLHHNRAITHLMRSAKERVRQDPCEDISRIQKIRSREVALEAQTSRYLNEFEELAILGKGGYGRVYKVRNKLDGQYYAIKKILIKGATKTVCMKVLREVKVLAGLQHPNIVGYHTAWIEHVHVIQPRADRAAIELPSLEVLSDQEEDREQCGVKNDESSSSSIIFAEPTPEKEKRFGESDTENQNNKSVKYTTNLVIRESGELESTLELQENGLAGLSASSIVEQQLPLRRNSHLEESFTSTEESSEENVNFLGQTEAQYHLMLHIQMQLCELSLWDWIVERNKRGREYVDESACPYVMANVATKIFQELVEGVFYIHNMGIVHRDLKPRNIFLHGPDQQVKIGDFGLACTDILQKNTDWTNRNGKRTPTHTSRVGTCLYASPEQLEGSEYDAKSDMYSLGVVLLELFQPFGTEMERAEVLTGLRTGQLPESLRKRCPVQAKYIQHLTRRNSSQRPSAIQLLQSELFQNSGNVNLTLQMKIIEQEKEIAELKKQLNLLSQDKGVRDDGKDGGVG

Consider `COc1ncc(Br)cc1S(=O)(=O)Nc1ccc(F)c(-n2c(=O)c3cnc(N)nc3n(C)c2=O)c1F` [Example 46, N-(3-(7-amino-1-methyl-2,4-dioxo-1,4-dihydropyrimido[4,5-d]pyrimidin-3(2H)-yl)-2,4-difluorophenyl)-5-bromo-2-methoxypyridine-3-sulfonamide], for which the results for the IC50 in assay [1] and in assay [2] were less than 100 nM and 100 to 300 nM, respectively.

As for `COc1ncc(Cl)cc1S(=O)(=O)Nc1ccc(F)c(-n2c(=O)c3cnc(N)nc3n(C)c2=O)c1F` [Example 44, N-(3-(7-amino-1-methyl-2,4-dioxo-1,4-dihydropyrimido[4,5-d]pyrimidin-3(2H)-yl)-2,4-difluorophenyl)-5-chloro-2-methoxypyridine-3-sulfonamide], the IC50 in assay [1] and in assay [2] was less than 100 nM throughout.

For `CNc1ncc2c(=O)n(-c3c(F)ccc(NS(=O)(=O)c4cc(Cl)cnc4OC)c3F)ccc2n1` [Example 32, 5-chloro-N-(2,4-difluoro-3-(2-(methylamino)-5-oxopirido[4,3-d]pyrimidin-6(5H)-yl)phenyl)-2-methoxypyridine-3-sulfonamide], the IC50 in assay [1] and in assay [2] was less than 100 nM in each case.

As to `Nc1ncc2c(=O)n(-c3c(F)ccc(NS(=O)(=O)c4cccc5ccccc45)c3F)ccc2n1` [Example 29, N-(3-(2-amino-5-oxopirido[4,3-d]pyrimidin-6(5H)-yl)-2,4-difluorophenyl)naphthalene-1-sulfonamide], the half-inhibitory concentration (IC50) in assay [1] and in assay [2] was less than 100 nM in each case.

In the case of `Nc1ncc2c(=O)n(-c3c(F)ccc(NS(=O)(=O)c4cc(Cl)cnc4Cl)c3F)ccc2n1` [Example 27, N-(3-(2-amino-5-oxopirido[4,3-d]pyrimidin-6(5H)-yl)-2,4-difluorophenyl)-2,5-dichloropyridine-3-sulfonamide], the concentration for half-maximal inhibition (IC50) in assay [1] and in assay [2] was less than 100 nM in each case.

For `COc1ncc(Cl)cc1S(=O)(=O)Nc1ccc(F)c(-n2cc(C(F)F)c3nc(N)ncc3c2=O)c1F` [Example 22, N-(3-(2-amino-8-(difluoromethyl)-5-oxopirido[4,3-d]pyrimidin-6(5H)-yl)-2,4-difluorophenyl)-5-chloro-2-methoxypyridine-3-sulfonamide], the half-inhibitory concentration (IC50) in assay [1] and in assay [2] was less than 100 nM each time.

The values are drawn from US20260184706A1, “PHENYLSULFONAMIDE DERIVATIVES, PREPARATION METHOD THEREFOR, AND PHARMACEUTICAL COMPOSITION FOR PREVENTION OR TREATMENT OF CANCER CONTAINING SAME AS ACTIVE INGREDIENT” (Korea Research Institute of Chemical Technology, priority 2022, published 2026).
